Reference: ChEMBL document CHEMBL1201862, “PubChem BioAssay data set” (2004)
One block for each molecule: values may come before it. Calls of active or inactive are those of the source.

How the values were obtained:
[1] = target: T1, Cysteine protease ATG4B (Homo sapiens, UniProt Q9Y4P1); type: functional;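 note: Fluorescence-based dose-response confirmation assay measuring inhibition of ATG4B activity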
T1 sequence (Q9Y4P1 whole entry): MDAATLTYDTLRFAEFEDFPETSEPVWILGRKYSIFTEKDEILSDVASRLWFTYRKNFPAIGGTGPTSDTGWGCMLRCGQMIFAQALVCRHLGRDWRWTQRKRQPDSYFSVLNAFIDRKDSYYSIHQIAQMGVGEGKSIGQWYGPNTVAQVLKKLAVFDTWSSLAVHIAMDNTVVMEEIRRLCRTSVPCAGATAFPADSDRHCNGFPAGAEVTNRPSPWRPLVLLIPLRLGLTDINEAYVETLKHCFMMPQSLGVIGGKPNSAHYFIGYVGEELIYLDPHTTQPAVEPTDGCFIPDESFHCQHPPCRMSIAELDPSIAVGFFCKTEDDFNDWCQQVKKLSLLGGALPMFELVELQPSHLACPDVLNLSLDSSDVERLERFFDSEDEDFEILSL

[2] = target: Phospholipase A2 (Homo sapiens, UniProt P04054); type: functional;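 note: confirmatory dose-response counterscreen on phospholipase A2, testing hits that came from an ultra-high-throughput screen for ATG4B inhibitors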
[3] = target: T2, SUMO-activating enzyme (Homo sapiens, UniProt Q9UBT2); experiment: SUMOylation inhibitor hit validation, confirmation, SUMOylation inhibitor project, biochemical, AlphaScreen (AID 2018); type: functional
[4] = target: T2, SUMO-activating enzyme; experiment: inhibitors of in vitro SUMOylation cascade, primary screen, biochemical, HTRF, uHTS (AID 2006); type: protein-complex assay
[5] = target: Induced myeloid leukemia cell differentiation protein Mcl-1 (Homo sapiens, UniProt Q07820); type: functional
[6] = target: DNA (cytosine-5)-methyltransferase 1 (Homo sapiens, UniProt P26358); experiment: DNMT1 methyltransferase inhibitors, confirmation, biochemical, fluorescent molecular beacon (AID 602386); type: functional
[7] = target: T3, Caspase-6 (Homo sapiens, UniProt P55212); experiment: human caspase-6 inhibitors, dose response, biochemical, VEID-R110 fluorescence, cherry-pick (AID 720632)
T3 sequence (P55212 whole entry): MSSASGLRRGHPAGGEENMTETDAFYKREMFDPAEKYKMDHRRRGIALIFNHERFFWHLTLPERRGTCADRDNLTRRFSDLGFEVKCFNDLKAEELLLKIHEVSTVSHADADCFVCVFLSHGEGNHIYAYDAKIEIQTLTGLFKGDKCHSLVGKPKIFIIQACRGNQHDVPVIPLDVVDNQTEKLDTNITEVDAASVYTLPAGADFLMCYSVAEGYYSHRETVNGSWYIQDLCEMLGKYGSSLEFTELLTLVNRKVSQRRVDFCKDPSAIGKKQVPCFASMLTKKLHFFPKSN

[8] = target: Beta-2 adrenergic receptor (Homo sapiens, UniProt P07550); experiment: beta2AR agonists driving receptor internalization, dose response, cell-based, FAP fluorogen, flow cytometry, cherry pick 1 (AID 588763); type: functional
[9] = NIH-3T3 fibroblast cytotoxicity, dose response, cytotoxicity control, cell-based, fluorescence, Alamar Blue, secondary assay (AID 2327); type: functional;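 note: NIH-3T3 mouse fibroblasts cultured with fluconazole at 8 µg/mL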
[10] = HEp-2 cell cytotoxicity, dose response, cytotoxicity control for RSV inhibitor project, HTS (AID 2410); type: functional; details: human respiratory syncytial virus
[11] = C. albicans growth with fluconazole, confirmation, fluorescence, retest (AID 2467); type: functional, cell-based
[12] = target: T4, Caspase-3 (Homo sapiens, UniProt P42574); type: functional;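 note: Dose-response selectivity test against caspase-3 for candidate inhibitors of sentrin-specific proteases (SENPs)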
T4 sequence (P42574 whole entry): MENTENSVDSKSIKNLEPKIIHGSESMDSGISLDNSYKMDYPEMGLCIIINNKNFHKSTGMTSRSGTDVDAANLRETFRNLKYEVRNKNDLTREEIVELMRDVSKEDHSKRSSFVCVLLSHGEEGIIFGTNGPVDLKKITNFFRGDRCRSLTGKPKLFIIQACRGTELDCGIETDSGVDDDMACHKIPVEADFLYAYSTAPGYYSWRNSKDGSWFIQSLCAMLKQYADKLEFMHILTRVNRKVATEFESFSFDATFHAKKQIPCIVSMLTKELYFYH

[13] = target: T5, Sentrin-specific protease 7 (Homo sapiens, UniProt Q9BQF6); type: functional;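 note: Luminescence-based dose-response confirmation of ultra-high-throughput screening hits, measuring inhibition of SENP7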
T5 sequence (Q9BQF6 whole entry): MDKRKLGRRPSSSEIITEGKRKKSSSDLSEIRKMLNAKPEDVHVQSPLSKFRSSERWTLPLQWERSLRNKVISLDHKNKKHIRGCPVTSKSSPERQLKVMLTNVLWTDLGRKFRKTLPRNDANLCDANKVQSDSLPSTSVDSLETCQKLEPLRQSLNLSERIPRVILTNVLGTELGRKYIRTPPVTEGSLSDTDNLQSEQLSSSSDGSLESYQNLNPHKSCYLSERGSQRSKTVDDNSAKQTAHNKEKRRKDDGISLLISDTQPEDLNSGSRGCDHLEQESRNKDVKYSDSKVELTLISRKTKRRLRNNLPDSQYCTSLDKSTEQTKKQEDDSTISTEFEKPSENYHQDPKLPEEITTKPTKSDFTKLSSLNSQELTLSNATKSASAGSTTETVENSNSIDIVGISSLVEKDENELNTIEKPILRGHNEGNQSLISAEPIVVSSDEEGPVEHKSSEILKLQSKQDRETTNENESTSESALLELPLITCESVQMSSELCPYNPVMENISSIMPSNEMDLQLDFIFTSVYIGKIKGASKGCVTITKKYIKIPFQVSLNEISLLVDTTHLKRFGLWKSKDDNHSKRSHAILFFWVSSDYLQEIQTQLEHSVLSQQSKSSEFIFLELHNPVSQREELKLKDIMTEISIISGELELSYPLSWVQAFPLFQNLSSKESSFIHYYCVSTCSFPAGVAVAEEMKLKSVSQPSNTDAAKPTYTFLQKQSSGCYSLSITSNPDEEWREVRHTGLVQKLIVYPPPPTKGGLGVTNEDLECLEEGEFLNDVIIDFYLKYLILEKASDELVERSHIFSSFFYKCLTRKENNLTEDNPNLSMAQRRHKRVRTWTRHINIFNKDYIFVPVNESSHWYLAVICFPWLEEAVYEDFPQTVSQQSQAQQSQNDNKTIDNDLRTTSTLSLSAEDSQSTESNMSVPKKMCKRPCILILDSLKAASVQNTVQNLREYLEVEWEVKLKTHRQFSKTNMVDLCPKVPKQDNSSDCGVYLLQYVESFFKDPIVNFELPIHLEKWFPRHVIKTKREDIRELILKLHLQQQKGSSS

[14] = target: T6, Sentrin-specific protease 6 (Homo sapiens, UniProt Q9GZR1); type: functional;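 note: Luminescence-based dose-response confirmatory assay of SENP6 inhibition, following up an ultra-high-throughput screen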
T6 sequence (Q9GZR1 whole entry): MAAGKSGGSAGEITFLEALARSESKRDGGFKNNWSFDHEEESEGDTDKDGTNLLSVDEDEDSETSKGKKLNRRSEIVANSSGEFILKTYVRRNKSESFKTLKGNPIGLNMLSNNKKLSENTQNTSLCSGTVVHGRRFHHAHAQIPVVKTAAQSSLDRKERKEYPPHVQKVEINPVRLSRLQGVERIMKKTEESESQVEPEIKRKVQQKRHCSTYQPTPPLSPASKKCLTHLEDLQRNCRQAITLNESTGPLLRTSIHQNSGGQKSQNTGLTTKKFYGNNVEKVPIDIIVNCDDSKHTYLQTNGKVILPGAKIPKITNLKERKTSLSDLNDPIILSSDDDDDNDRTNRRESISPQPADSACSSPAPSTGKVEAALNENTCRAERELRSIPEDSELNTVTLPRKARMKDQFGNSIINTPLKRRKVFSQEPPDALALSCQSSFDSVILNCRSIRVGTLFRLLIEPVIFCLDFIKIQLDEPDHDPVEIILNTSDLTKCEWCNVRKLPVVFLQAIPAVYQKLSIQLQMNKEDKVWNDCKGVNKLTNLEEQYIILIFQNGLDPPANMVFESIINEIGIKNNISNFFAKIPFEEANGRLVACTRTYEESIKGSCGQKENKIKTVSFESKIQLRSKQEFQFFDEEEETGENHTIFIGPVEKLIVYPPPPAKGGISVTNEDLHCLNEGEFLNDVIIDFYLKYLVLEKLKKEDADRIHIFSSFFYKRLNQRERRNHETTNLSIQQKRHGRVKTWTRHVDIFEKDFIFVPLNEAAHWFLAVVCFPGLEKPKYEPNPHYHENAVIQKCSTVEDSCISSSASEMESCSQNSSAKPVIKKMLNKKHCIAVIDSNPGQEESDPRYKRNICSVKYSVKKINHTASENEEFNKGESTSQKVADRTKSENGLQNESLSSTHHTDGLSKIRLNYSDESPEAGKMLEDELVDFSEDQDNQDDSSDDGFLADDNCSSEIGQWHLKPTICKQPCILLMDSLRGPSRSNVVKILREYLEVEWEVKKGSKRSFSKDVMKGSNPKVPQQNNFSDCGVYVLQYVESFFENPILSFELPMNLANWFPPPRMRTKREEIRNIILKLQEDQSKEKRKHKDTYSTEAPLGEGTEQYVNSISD

[15] = target: FAD-linked sulfhydryl oxidase ALR (Homo sapiens, UniProt P55789); experiment: inhibitors of human ALR sulfhydryl oxidase, dose response, biochemical, H2O2 detection, luminescence, cherry-pick (AID 493248)
[16] = target: T7, Sentrin-specific protease 8 (Homo sapiens, UniProt Q96LD8); type: functional;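 note: luminescence read-out of SENP8 inhibition, dose-response confirmation following an ultra-high-throughput screen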
T7 sequence (Q96LD8 whole entry): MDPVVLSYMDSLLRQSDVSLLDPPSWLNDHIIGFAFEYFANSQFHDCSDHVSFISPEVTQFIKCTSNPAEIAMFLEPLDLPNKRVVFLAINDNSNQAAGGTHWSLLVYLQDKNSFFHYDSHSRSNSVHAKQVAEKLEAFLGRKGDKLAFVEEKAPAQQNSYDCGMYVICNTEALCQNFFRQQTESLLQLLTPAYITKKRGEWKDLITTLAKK

[17] = tested on: HeLa; experiment: HeLa cell cytotoxicity, dose response, cytotoxicity control for MITF activator project, CellTiter-Glo luminescence, cherry-pick samples (AID 540259); type: functional, cell-based; details: Homo sapiens

T2 sequence (Q9UBE0 whole entry): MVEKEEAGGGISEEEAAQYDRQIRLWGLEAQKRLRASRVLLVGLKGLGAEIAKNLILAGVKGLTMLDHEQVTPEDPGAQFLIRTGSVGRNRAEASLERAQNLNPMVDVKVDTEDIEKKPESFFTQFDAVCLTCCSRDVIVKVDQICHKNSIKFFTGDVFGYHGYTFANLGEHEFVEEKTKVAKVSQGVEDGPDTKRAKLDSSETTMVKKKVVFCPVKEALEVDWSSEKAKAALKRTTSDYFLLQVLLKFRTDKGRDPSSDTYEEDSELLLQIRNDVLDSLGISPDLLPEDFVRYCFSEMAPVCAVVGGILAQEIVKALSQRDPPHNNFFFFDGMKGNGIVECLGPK
T2 sequence (Q9UBT2 whole entry): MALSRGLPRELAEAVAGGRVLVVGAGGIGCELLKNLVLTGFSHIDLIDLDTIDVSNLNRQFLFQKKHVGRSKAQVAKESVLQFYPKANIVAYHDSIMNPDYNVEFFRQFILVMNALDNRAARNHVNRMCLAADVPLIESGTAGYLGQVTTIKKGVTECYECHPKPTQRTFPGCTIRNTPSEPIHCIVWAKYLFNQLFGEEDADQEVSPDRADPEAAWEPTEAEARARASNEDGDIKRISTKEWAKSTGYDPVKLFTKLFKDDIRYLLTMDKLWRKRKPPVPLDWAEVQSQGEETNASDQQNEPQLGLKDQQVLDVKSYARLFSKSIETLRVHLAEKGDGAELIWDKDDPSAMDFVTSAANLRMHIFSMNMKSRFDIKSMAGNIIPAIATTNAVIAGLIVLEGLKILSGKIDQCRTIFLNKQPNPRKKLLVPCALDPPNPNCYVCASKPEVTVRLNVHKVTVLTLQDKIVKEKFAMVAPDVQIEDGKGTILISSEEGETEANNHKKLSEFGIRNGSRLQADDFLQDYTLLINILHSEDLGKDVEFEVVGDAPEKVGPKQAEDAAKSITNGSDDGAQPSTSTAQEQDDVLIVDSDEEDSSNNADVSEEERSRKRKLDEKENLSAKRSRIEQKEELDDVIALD
Sequence of Phospholipase A2 (P04054 whole entry): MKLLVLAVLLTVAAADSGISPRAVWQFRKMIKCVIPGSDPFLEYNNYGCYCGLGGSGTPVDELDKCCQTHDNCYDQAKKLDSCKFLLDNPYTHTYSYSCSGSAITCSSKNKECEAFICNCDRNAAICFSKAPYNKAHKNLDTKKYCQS
Sequence of Beta-2 adrenergic receptor (P07550 whole entry): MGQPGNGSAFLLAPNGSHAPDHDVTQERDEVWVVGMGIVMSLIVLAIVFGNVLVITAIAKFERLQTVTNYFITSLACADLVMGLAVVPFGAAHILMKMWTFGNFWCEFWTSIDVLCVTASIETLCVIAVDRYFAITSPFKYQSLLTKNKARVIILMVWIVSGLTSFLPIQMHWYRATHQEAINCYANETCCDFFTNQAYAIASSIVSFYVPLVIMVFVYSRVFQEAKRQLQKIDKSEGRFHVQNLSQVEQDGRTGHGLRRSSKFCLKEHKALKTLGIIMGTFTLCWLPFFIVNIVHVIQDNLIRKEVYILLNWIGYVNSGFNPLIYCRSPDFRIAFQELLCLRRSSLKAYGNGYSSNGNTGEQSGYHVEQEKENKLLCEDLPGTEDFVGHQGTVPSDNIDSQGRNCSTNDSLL
Sequence of Induced myeloid leukemia cell differentiation protein Mcl-1 (Q07820 whole entry): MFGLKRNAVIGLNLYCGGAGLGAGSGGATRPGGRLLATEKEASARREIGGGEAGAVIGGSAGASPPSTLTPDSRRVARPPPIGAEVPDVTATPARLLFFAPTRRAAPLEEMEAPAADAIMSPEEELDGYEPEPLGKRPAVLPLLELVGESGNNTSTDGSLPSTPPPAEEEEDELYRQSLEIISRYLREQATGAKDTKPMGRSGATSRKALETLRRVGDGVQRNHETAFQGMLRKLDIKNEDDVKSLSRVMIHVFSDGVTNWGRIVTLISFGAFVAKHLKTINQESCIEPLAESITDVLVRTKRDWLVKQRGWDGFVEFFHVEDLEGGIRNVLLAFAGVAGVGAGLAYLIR
Sequence of DNA (cytosine-5)-methyltransferase 1 (P26358 whole entry): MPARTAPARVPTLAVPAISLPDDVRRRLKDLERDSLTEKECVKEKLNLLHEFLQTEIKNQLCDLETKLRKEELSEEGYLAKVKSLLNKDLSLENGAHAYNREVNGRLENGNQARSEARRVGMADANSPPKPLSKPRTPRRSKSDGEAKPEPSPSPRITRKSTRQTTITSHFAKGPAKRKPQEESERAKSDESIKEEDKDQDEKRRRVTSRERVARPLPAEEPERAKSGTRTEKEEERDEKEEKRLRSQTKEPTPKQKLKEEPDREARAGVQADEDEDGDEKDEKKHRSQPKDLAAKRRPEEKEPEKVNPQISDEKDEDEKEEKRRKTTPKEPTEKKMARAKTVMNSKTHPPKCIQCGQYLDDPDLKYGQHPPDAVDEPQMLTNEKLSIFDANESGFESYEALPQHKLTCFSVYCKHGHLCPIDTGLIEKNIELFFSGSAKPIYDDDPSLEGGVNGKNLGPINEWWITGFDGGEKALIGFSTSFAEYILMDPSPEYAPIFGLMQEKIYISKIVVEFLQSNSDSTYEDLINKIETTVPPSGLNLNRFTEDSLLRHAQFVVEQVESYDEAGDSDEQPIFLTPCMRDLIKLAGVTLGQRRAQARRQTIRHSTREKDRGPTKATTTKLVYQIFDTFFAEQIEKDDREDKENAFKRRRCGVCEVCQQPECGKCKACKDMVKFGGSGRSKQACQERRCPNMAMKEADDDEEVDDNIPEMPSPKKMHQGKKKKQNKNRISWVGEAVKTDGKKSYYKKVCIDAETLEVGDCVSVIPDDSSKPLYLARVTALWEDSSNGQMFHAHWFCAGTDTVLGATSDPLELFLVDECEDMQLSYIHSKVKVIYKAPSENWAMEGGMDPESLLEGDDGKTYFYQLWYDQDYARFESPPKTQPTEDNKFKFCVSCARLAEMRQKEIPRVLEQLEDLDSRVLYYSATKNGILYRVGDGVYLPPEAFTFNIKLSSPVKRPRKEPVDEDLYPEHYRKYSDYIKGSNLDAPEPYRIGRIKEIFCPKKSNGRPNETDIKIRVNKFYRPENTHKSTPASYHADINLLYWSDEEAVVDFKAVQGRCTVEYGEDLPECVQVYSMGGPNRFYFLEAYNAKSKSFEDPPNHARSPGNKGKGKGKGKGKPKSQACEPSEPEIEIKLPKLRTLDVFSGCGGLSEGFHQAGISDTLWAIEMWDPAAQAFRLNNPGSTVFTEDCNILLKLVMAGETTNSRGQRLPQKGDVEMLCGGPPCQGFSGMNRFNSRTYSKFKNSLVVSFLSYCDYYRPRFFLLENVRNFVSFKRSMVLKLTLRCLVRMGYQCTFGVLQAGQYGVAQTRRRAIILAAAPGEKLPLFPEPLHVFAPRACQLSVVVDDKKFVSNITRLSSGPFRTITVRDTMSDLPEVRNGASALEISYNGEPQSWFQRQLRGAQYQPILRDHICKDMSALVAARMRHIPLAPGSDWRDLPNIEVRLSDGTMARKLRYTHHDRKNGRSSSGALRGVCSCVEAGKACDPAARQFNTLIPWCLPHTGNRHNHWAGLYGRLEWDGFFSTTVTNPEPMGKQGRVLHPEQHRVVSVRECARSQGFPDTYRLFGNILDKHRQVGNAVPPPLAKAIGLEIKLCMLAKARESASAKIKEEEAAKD
Sequence of FAD-linked sulfhydryl oxidase ALR (P55789 whole entry): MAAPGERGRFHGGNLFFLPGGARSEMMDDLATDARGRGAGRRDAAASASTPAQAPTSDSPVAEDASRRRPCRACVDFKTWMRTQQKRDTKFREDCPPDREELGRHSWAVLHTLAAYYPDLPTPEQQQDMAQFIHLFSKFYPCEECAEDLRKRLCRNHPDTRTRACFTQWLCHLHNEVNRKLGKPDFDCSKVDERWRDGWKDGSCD

- IC50 [1]: 11 µM (active)
- IC50 [2]: 12.6 µM (active)
SMILES: Cc1nc2c(C(=O)NCc3ccccc3Cl)cnn2c(O)c1Cl

- IC50 [3]: 1.65 µM (active)
- IC50 [4]: 16.8 µM (active)
- IC50 [5]: 2.27 µM (active)
- IC50 [1]: 4.31 µM (active)
- IC50 [2]: 5.31 µM (active)
- IC50 [6]: 5.34 µM (active)
- AC50 [7]: 24.2 µM (active)
SMILES: CN(c1ccccc1)c1ccc(/C=C(\CCC(=O)O)c2nc3ccccc3s2)cc1[N+](=O)[O-]

- EC50 [8]: 0.0813 µM (active)
SMILES: Cc1ccc(CS(=O)(=O)c2nc3c(c(N(C)C)n2)CCCC3)cc1

SMILES: CC(=O)Nc1cccc(-c2csc(Nc3ccc(C)cn3)n2)c1
- EC50 [9]: 25.8 µM (active)
- CC50 [10]: > 50 µM (active)
- EC50 [11]: 4.04 µM (active)
- IC50 [12]: 39.7 µM (active)
- IC50 [13]: 4.13 µM (active)
- IC50 [14]: 12.7 µM (active)
- AC50 [15]: 0.169 µM (active)
- IC50 [16]: 17.5 µM (active)
- AC50 [17]: 40 µM (active)
